The series in a line: In vivo pharmacokinetic assay in male SD rats. The following applies: rat, serum, data not shown, read-out: maximum serum concentration (Cmax).

In the case of `C=CC(=O)Nc1cc(Nc2nccc(-c3cn(C)c4ccccc34)n2)c(OC)cc1N(C)CCN(C)C` [AZD9291], the Cmax came out at 220 nM.

The values are drawn from publication PMC5990611, “An in Vitro Assay of hERG K^+ Channel Potency for a New EGFR Inhibitor FHND004” (Frontiers in Pharmacology, 2018).
